A value given as a limit tells only on which side of the number the result lay.

One assay has as its target T1, P2X7 receptor (Homo sapiens, UniProt Q99572).
T1 construct: host or cells: SH-SY5Y
T1 sequence (Q99572 1-595): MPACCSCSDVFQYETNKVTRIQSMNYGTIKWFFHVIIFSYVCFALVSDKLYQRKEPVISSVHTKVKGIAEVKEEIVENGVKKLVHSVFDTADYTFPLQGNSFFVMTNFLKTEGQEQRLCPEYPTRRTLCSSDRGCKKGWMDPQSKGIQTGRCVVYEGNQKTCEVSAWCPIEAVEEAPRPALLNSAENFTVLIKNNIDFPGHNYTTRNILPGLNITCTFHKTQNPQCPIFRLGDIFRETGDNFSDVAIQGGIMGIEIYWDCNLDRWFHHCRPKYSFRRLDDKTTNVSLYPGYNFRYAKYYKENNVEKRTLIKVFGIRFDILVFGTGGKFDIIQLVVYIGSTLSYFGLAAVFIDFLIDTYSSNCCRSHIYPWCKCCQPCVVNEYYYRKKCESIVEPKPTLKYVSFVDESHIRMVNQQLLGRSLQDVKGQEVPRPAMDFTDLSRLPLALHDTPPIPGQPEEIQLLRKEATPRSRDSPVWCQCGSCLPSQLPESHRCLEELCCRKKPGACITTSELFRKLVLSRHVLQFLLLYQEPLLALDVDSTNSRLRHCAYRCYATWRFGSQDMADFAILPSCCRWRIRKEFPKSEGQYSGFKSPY
Briefly: P2X7 calcium mobilization assay, high throughput, antagonist activity (Example 4A).
Conditions: not given
In kind it is cell-based. The essentials: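 Antagonism was measured as calcium fluorescence (FLIPR Tetra) in cells seeded one day earlier at 100,000/well, loaded with dye for 1 h and exposed to compound for 1 h at room temperature before agonist. Peak RFU, minus the no-agonist background, was referenced to the mean of the agonist wells.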
For orientation: Calcium flux is commonly read through the fluorescence of an indicator in the cells.
In the case of `COCCN(C)Cc1cn2c(C(=O)NCC34CC5CC(CC(C5)C3)C4)cccc2n1` [Compound 133, N-(adamantan-1-ylmethyl)-2-{[(2-methoxyethyl)(meth-yl)amino]methyl}imi-dazo[1,2-a]pyridine-5-carboxamide], the IC50 was under 2000 nM.

The assay is the same for the next values; noted with them: 50% decrease in the fluorescence response of cells exposed to 80 μM 2′(3′)-O-(4-benzoyl-benzoyl)adenosine 5′-triphosphate; Example 4A; read-out: IC50.
On to `COCCN(C(=O)Cc1cn2c(C(=O)NC[C@@H]3CC[C@@H]4C[C@H]3C4(C)C)cccc2n1)C1CCNCC1` [Compound 567, N-{[(1R,2R,5R)-6,6-dimethylbicyclo[3.1.1]hept-2-yl]methyl}-2-{2-[(2-methoxyethyl) (piperidin-4-yl)amino]-2-oxoethyl} imidazo[1,2-a]pyridine-5-carboxamide], for which the IC50 is under 2000 nM.
The same measure, in the same setting: the result for `CN(C)C(=O)c1cn2c(C(=O)NC[C@@H]3CC[C@H]4C[C@@H]3C4(C)C)cccc2n1` [Compound 470, 5-N-{[(1S,2R,5S)-6,6-dimethylbicyclo[3.1.1]hept-2-yl]methyl}-2-N,2-N-dimethylimidazo[1,2-a]pyridine-2,5-dicarboxamide] reads under 2000 nM.

Still in this assay, the particulars now being: 50% decrease in the fluorescence response of cells exposed to 80 μM of 2′(3′)-O-(4-benzoyl-benzoyl)adenosine 5′-triphosphate; Example 4A; read-out: IC50.
For the compound `O=C(NCCN1CCCC1)c1cn2c(C(=O)NCC34CC5CC(CC(C5)C3)C4)cccc2n1` [Compound 646, 5-N-(adamantan-1-ylmethyl)-2-N-(2-pyrrolidin-1-ylethyl)imidazo[1,2-a]pyridine-2,5-dicarboxamide], the IC50 is under 2000 nM.
The same measure, in the same setting: the result for `CC(C)(C)OC(=O)N[C@@H]1CCN(Cc2cn3c(C(=O)NCC(CC4CCCC4)c4ccccc4)cccc3n2)C1` (stereo in doubt) [Compound 784, tert-butyl [1-({5-[(3-cyclopentyl-2-phenylpropyl)carbamoyl]imidazo[1,2-a]pyridin-2-yl}methyl)pyrrolidin-3-yl]carbamate] reads under 2000 nM; that for `CCOC(=O)CCc1cn2c(C(=O)NCC34CC5CC(CC(C5)C3)C4)cccc2n1` [Compound 756, ethyl 3-{5-[(adamantan-1-ylmethyl)carbamoyl]imidazo[1,2-a]pyridin-2-yl}propanoate], under 2000 nM; that for `CC(C)CC(CNC(=O)c1cccc2nc(CN3CC[C@@H](NC(=O)OC(C)(C)C)C3)cn12)c1ccc(C(F)(F)F)cc1` (some centres unmarked) [Compound 764, tert-butyl (1-{[5-({4-methyl-2-[4-(trifluoromethyl)phenyl]pentyl}carbamoyl)imidazo [1,2-a]pyridin-2-yl]methyl}pyrrolidin-3-yl)carbamate], under 2000 nM.
Same read-out and setting: in the case of `CN(Cc1ccc(C(F)(F)F)cn1)C(=O)c1cn2c(C(=O)NCC34CC5CC(CC(C5)C3)C4)cccc2n1` [Compound 711, 5-N-(adamantan-1-ylmethyl)-2-N-methyl-2-N-{[5-(trifluoromethyl)pyridin-2-yl]methyl}imidazo[1,2-a]pyridine-2,5-dicarboxamide] it was under 2000 nM.

The assay is the same for the next values; noted with them: 50% decrease in the fluorescence response of cells exposed to 80 μM of 2′(3′)-O-(4-benzoyl-benzoyl)adenosine 5′-triphosphate; determined as in Example 4A; read-out: IC50.
Turning to `CCC(C)NC(=O)Cc1cn2c(C(=O)NCC3(c4ccc(C(F)(F)F)cc4)CCCCC3)cccc2n1` (centres unmarked) [Compound 868, 2-[2-(sec-butylamino)-2-oxoethyl]-N-({1-[4-(trifluoromethyl)phenyl]cyclohexyl}methyl) imidazo[1,2-a] pyridine-5-carboxamide], the IC50 was under 2000 nM.
On to `O=C(Cc1cn2c(C(=O)NCC3(c4ccc(C(F)(F)F)cc4)CCCCC3)cccc2n1)NCC(F)(F)F` [Compound 873, 2-{2-oxo-2-[(2,2,2-trifluoroethyl)amino]ethyl}-N-({1-[4-(trifluoromethyl)phenyl]cyclohexyl}methyl) imidazo[1,2-a] pyridine-5-carboxamide], for which the IC50 was under 2000 nM.
The same measure, in the same setting: in the case of `COc1ccc(C2(CNC(=O)c3cccc4nc(CCC(=O)O)cn34)CCCCC2)cc1` [Compound 998, 3-[5-({[1-(4-methoxyphenyl)cyclohexyl]methyl}carbamoyl)imidazo[1,2-a]pyridin-2-yl]propanoic acid] it was under 2000 nM; in that of `O=C(NCC12CC3CC(CC(C3)C1)C2)c1cccc2nc(Cn3nnnc3CCO)cn12` [Compound 855, N-(adamantan-1-ylmethyl)-2-{[5-(2-hydroxyethyl)-1H-tetrazol-1-yl]methyl}imidazo [1,2-a]pyridine-5-carboxamide], under 2000 nM; in that of `CNC(=O)c1ccc(NC(=O)Cc2cn3c(C(=O)NCC4CCCCCC4)cccc3n2)cc1` [Compound 957, N-(cycloheptylmethyl)-2-(2-{[4-(methylcarbamoyl)phenyl]amino}-2-oxoethyl) imidazo[1,2-a] pyridine-5-carboxamide], under 2000 nM.
As to `CN(Cc1cccc(N)n1)C(=O)c1cn2c(C(=O)NCC34CC5CC(CC(C5)C3)C4)cccc2n1` [Compound 825, 5-N-(adamantan-1-ylmethyl)-2-N-[(6-aminopyridin-2-yl)methyl]-2-N-methylimidazo[1,2-a]pyridine-2,5-dicarboxamide], the IC50 was under 2000 nM.

The assay is the same for the next values; noted with them: P2X7 calcium mobilization, Example 4A; 50% decrease in the fluorescence response of cells exposed to 80 μM of (2′(3′)-O-(4-benzoyl-benzoyl)adenosine 5′-triphosephate); read-out: IC50.
Regarding `CC(C)CC(CNC(=O)c1cccc2nc(C(C)N3CCC3)cn12)c1ccc(Cl)cc1` (centres unmarked) [Compound 1033, 2-(1-azetidin-1-ylethyl)-N-[2-(4-chlorophenyl)-4-methylpentyl] imidazo[1,2-a] pyridine-5-carboxamide], the IC50 is under 2000 nM.

Staying with this assay, now noted: SH-SY5Y cells; 50% decrease in fluorescence response to 80 μM BzATP; read-out: IC50.
In the case of `O=C(NCC(=O)N1CCOCC1)c1cn2c(C(=O)NCC34CC5CC(CC(C5)C3)C4)cccc2n1` [Compound 76, 5-N-(adamantan-1-ylmethyl)--(2-morpholin-4-yl-2-oxoethyl)imidazo[1,2-a]pyridine-2,5-dicarboxamide], the IC50 was under 2000 nM.
The same measure, in the same setting: in the case of `CCCN(C)C(=O)Cc1cn2c(C(=O)NCC34CC5CC(CC(C5)C3)C4)cccc2n1` [Compound 186, N-(adamantan-1-ylmethyl)-2-{2-[methyl(propyl)amino]-2-oxoethyl}imidazo[1,2-a]pyridine-5-carboxamide] it was under 2000 nM.
Same read-out and setting: in the case of `CN(CC(C)(C)O)C(=O)Cc1cn2c(C(=O)NCC34CC5CC(CC(C5)C3)C4)cccc2n1` [Compound 57, N-(adamantan-1-ylmethyl)-2-{2-[(2-hydroxy-2-methyl-propyl)(meth-yl)amino]-2-oxoethyl}imidazo[1,2-a]pyridine-5-carboxamide] it was under 2000 nM; in that of `COCCN1CCN(C(=O)c2cn3c(C(=O)NCC45CC6CC(CC(C6)C4)C5)cccc3n2)CC1` [Compound 94, N-(adamantan-1-ylmethyl)-2-{[4-(2-methoxyethyl)piperazin-1-yl]carbonyl}imidazo[1,2-a]pyridine-5-carboxamide], under 2000 nM.
Same read-out and setting: the result for `NC1CN(Cc2cn3c(C(=O)NCC45CC6CC(CC(C6)C4)C5)cccc3n2)C1` [Compound 130, N-(adamantan-1-ylmethyl)-2-[(3-aminoazetidin-1-yl)methyl]imidazo[1,2-a]pyridine-5-carboxamide] reads under 2000 nM.

The same assay, now with this note: fluorescence response of cells exposed to 80 μM 2′(3′)-O-(4-benzoyl-benzoyl)adenosine 5′-triphosphate; Example 4A; read-out: IC50.
With `CN(C)C(=O)NCCc1cn2c(C(=O)NCC34CC5CC(CC(C5)C3)C4)cccc2n1` [Compound 268, N-(adamantan-1-ylmethyl)-2-{2-[(dimethylcarbamoyl)amino]ethyl} imidazo[1,2-a] pyridine-5-carboxamide], the IC50 was under 2000 nM.
Still for that read-out and setting: in the case of `CCC(COC)NC(=O)Cc1cn2c(C(=O)NCC(CC(C)C)c3ccccc3)cccc2n1` (centres unmarked) [Compound 231, 2-(2-{[1-(methoxymethyl)propyl]amino}-2-oxoethyl)-N-(4-methyl-2-phenylpentyl) imidazo [1,2-a]pyridine-5-carboxamide] it was under 2000 nM; in that of `CN(C)[S@SP3](=O)(=O)N1CCN(C(=O)c2cn3c(NC(=O)CC45CC6CC(CC(C6)C4)C5)cccc3n2)CC1` [Compound 400, 2-adamantan-1-yl-N-(2-{[4-(dimethylsulfamoyl)piperazin-1-yl]carbonyl}imidazo [1,2-a]pyridin-5-yl)acetamide], under 2000 nM.

One may read the IC50 as the midpoint of a concentration-inhibition curve.

Values taken from patent US8431593B2, “Heteroaryl amide derivatives” (H. Lundbeck A/S, priority 2006, dated 2013).
